Experimental data taken from US9663495B2 (YUHAN CORPORATION, priority 2013, dated 2017).

How the values were obtained:
GPR119 [1] = biological target: T1, GPR119 (Homo sapiens, UniProt Q8TDV5); assay: cAMP Accumulation Assay (GPR119 CRE-bla CHO-K1 cells, LiveBLAzer-FRET B/G); type: cell-based; conditions: (Emax of the test compound/Emax of MBX-2982)x100, 5 hours incubation
T1 construct: host or cells: CHO-K1 (GPR119 CRE-bla, doxycycline-induced)
T1 sequence (Q8TDV5 1-335): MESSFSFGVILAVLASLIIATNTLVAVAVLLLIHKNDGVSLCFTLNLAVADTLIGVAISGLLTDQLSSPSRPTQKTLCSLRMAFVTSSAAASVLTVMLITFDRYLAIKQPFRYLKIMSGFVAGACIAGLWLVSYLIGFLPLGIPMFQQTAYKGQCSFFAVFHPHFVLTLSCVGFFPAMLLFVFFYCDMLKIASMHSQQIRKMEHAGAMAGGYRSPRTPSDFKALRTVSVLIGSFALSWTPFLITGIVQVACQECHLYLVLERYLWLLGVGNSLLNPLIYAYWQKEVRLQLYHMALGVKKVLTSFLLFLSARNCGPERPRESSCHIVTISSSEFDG

GPR119 [2] = biological target: T1, GPR119; assay: as above; type: cell-based; conditions: for EC50: 5 hours incubation; for Emax (Fold): maximum activity, response ratio versus non-treated control group
male C57BL/6 mice = assay: Oral Glucose Tolerance Test (OGTT); type: in vivo; set-up: concentration or dose not given beside the values; conditions: fasted male C57BL/6 mice, oral administration 30 minutes before oral glucose; AUCglucose 0-120 minutes versus negative control group
Procedure: The oral glucose tolerance test of the compounds according to the present invention was carried out according to the procedures disclosed in Andrikopoulos S, Blair A R, Deluca N, Fam B C, Proietto J, Am J Physiol Endocrinol Metab. 2008, Vol 295, E1323-1332. Briefly, male C57BL/6 mice at 8 to 9 weeks of age having 20 g to 25 g of body weight (Orient Bio Inc. Korea) were allowed to acclimatize to the surroundings (temperature: 20±2° C., humidity: 40-60%, light/dark cycle: 12 hours) for 1 week. During the acclimatization, the mice were given ad libitum access to feed and water. The mice were fasted from 18 hours before the test, except for allowing free access to water. After measuring the mice′ body weights and blood sugar levels, they were divided into test groups so as to have similar blood sugar levels. The mice were orally administered with a mixture of test compound and the diluent (0.5% solution of MC1500 (Sigma)). At 30 minutes after the administration, the mice were also orally administered with 20% glucose solution in an amount of 0.1 ml per 10 g of body weight. The blood samples were taken from the tail vain at 0 (right before the administration of the glucose solution), 15, 30, 60, 90, and 120 minutes after the administration of the glucose solution; and the blood sugar levels thereof were measured with a blood glucose test meter (GlucoDr. AGM-3000, All Medicus Co. Ltd.). The graph for blood sugar level on time for each test compound was plotted from the respective blood sugar values; and then area under the curve (AUCglucose) was determined. The inhibition rate of blood sugar (%) was calculated from the following formula. Inhibition rate of blood sugar (%)=[(AUCglucose of the negative control group−AUCglucose of the test group)/AUCglucose of the negative control group]×100

Structure (SMILES) | Emax (% RR) (GPR119 [1]) | EC50 (GPR119 [2]) [nM] | Emax (Fold) (GPR119 [2]) | Inhibition rate of blood sugar (%) (male C57BL/6 mice)
CCc1cnc(N2CCN(c3ncc(-c4ccc(-n5cnn(CCOC)c5=O)cc4)cc3C#N)CC2)nc1 [Example 40, 2-(4-(5-ethylpyrimidin-2-yl)piperazin-1-yl)-5-(4-(1-(2-methoxyethyl)-5-oxo-1H-1,2,4-triazol-4(5H)-yl)phenyl)nicotinonitrile] | 112.1 | 9 | 3.1 | 17.2
COCCn1ncn(-c2ccc(-c3cnc(N4CCC(c5noc(C(C)C)n5)CC4)c(C#N)c3)cc2)c1=O [Example 69, 2-(4-(5-isopropyl-1,2,4-oxadiazol-3-yl)piperidin-1-yl)-5-(4-(1-(2-methoxyethyl)-5-oxo-1H-1,2,4-triazol-4(5H)-yl)phenyl)nicotinonitrile] | 126.7 | 16 | 3.7 | 25.8
CCc1cnc(N2CCN(c3ncc(-c4ccc(-n5cnn([C@@H]6CCOC6)c5=O)cc4)cc3C#N)CC2)nc1 [Example 41, (R)-2-(4-(5-ethylpyrimidin-2-yl)piperazin-1-yl)-5-(4-(5-oxo-1-(tetrahydrofuran-3-yl)-1H-1,2,4-triazol-4(5H)-yl)phenyl)nicotinonitrile] | 113.4 | 5 | 3.1 | 18.8
CC(C)c1nc(C2CCN(c3ncc(-c4ccc(-n5cnn([C@@H]6CCOC6)c5=O)cc4)cc3C#N)CC2)no1 [Example 70, (R)-2-(4-(5-isopropyl-1,2,4-oxadiazol-3-yl)piperidin-1-yl)-5-(4-(5-oxo-1-(tetrahydrofuran-3-yl)-1H-1,2,4-triazol-4(5H)-yl)phenyl)nicotinonitrile] | 120.0 | 36 | 3.5 | 25.2
CCc1cnc(N2CCN(c3ncc(-c4ccc(-n5cnn([C@@H]6CCNC6)c5=O)c(F)c4)cc3C#N)CC2)nc1 [Example 34, (R)-2-(4-(5-ethylpyrimidin-2-yl)piperazin-1-yl)-5-(3-fluoro-4-(5-oxo-1-(pyrrolidin-3-yl)-1H-1,2,4-triazol-4(5H)-yl)phenyl)nicotinonitrile] | 113.8 | 8.4 | 3.2 | 25.1
CCc1cnc(N2CCN(c3ncc(-c4ccc(-n5cnn(CCN6CCCC6)c5=O)c(F)c4)cc3C#N)[C@@H](C)C2)nc1 [Example 14] | 125.1 | 14.8 | 3.3 | 18.6
CCCn1ncn(-c2ccc(-c3cnc(N4CCN(C(=O)OC(C)(C)C)C[C@@H]4C)c(C#N)c3)cc2F)c1=O [Example 5, (S)-tert-butyl 4-(3-cyano-5-(3-fluoro-4-(5-oxo-1-propyl-1H-1,2,4-triazol-4(5H)-yl)phenyl)pyridin-2-yl)-3-methylpiperazin-1-carboxylate] | 109.1 | 4 | 2.7 | 21.9
CC(C)c1nc(C2CCN(c3ncc(-c4ccc(-n5cnn([C@H]6CCOC6)c5=O)cc4)cc3C#N)CC2)no1 [Example 71, (S)-2-(4-(5-isopropyl-1,2,4-oxadiazol-3-yl)piperidin-1-yl)-5-(4-(5-oxo-1-(tetrahydrofuran-3-yl)-1H-1,2,4-triazol-4(5H)-yl)phenyl)nicotinonitrile] | 127.3 | 9.8 | 3.8 | 20.4
CCc1cnc(N2CCN(c3ncc(-c4ccc(-n5cnn(CCN6CCOCC6)c5=O)c(F)c4)cc3C#N)[C@@H](C)C2)nc1 [Example 15, (S)-2-(4-(5-ethylpyrimidin-2-yl)-2-methylpiperazin-1-yl)-5-(3-fluoro-4-(1-(2-morpholinoethyl)-5-oxo-1H-1,2,4-triazol-4(5H)-yl)phenyl)nicotinonitrile] | 124.5 | 5 | 3.5 | 21.7
CCc1cnc(N2CCN(c3ncc(-c4ccc(-n5cnn(CCN)c5=O)c(F)c4)cc3C#N)[C@@H](C)C2)nc1.Cl [Example 17, (S)-5-(4-(1-(2-aminoethyl)-5-oxo-1H-1,2,4-triazol-4(5H)-yl)-3-fluorophenyl)-2-(4-(5-ethylpyrimidin-2-yl)-2-methylpiperazin-1-yl)nicotinonitrile hydrochloride] | 115.1 | 8.2 | 3.2 | 18.2
CC(C)c1nc(N2CCN(c3ncc(-c4ccc(-n5cnn([C@H]6CCOC6)c5=O)c(F)c4)cc3C#N)CC2)no1 [Example 47, (S)-5-(3-fluoro-4-(5-oxo-1-(tetrahydrofuran-3-yl)-1H-1,2,4-triazol-4(5H)-yl)phenyl)-2-(4-(5-isopropyl-1,2,4-oxadiazol-3-yl)piperazin-1-yl)nicotinonitrile] | 141.6 | 12 | 3.2 | 32.7
CCc1cnc(N2CCN(c3ncc(-c4ccc(-n5cnn(CC(=O)N6CCCC6)c5=O)c(F)c4)cc3C#N)CC2)nc1 [Example 37, 2-(4-(5-ethylpyrimidin-2-yl)piperazin-1-yl)-5-(3-fluoro-4-(5-oxo-1-(2-oxo-2-(pyrrolidin-1-yl)ethyl)-1H-1,2,4-triazol-4(5H)-yl)phenyl)nicotinonitrile] | 110.0 | 3.2 | 3.1 | 16.5
